Tests used:
VEGFR-2 kinase = VEGFR-2 kinase (Homo sapiens (Human), UniProt P35968); assay: Assay of small molecular compounds for inhibiting the activity of VEGFR-2 kinase (LANCE TR-FRET); format: biochemical; details: read-out: VEGFR2 IC50
Summary of the method: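 LANCE TR-FRET with human VEGFR-2 (2× stock 0.5 nM) preincubated 30 min with compound (final 2500 to 0.042 nM, 11-point 3-fold), then ULight-JAK-1 (Tyr1023) peptide/ATP added (4× stocks 200 nM/40 μM). Reaction 60 min room temperature, 4% DMSO; IC50 from inhibition-rate curve.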

Ba/F3-AXL cells = assay: Assay for inhibiting the proliferation of Ba/F3-AXL cells (CCK-8); format: cell-based; details: 72 hours of incubation, medium with 100 ng/mL hGas6, CCK-8
Protocol: The values were then imported into Graphpad Prism 5 software for curve fitting, and IC50 was calculated.

c-MET kinase = c-MET kinase (Homo sapiens (Human), UniProt P08581); assay: Assay of small molecular compounds for inhibiting the activity of c-MET kinase (LANCE TR-FRET); format: biochemical; details: read-out: CMET IC50
Summary of the method: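 Eleven final concentrations from 2500 nM down to 0.042 nM, in 4% DMSO, were tested against human c-MET (2× stock 2 nM), with compound and enzyme premixed for 5 min. The phosphorylation reaction used 4× stock of 400 nM ULight-JAK-1 peptide and 40 μM ATP for 60 min at room temperature, then stop and detection steps. TR-FRET percent inhibition against positive and negative controls gave the IC50.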

VEGFR-2 kinase, sequence (P35968 20-1356): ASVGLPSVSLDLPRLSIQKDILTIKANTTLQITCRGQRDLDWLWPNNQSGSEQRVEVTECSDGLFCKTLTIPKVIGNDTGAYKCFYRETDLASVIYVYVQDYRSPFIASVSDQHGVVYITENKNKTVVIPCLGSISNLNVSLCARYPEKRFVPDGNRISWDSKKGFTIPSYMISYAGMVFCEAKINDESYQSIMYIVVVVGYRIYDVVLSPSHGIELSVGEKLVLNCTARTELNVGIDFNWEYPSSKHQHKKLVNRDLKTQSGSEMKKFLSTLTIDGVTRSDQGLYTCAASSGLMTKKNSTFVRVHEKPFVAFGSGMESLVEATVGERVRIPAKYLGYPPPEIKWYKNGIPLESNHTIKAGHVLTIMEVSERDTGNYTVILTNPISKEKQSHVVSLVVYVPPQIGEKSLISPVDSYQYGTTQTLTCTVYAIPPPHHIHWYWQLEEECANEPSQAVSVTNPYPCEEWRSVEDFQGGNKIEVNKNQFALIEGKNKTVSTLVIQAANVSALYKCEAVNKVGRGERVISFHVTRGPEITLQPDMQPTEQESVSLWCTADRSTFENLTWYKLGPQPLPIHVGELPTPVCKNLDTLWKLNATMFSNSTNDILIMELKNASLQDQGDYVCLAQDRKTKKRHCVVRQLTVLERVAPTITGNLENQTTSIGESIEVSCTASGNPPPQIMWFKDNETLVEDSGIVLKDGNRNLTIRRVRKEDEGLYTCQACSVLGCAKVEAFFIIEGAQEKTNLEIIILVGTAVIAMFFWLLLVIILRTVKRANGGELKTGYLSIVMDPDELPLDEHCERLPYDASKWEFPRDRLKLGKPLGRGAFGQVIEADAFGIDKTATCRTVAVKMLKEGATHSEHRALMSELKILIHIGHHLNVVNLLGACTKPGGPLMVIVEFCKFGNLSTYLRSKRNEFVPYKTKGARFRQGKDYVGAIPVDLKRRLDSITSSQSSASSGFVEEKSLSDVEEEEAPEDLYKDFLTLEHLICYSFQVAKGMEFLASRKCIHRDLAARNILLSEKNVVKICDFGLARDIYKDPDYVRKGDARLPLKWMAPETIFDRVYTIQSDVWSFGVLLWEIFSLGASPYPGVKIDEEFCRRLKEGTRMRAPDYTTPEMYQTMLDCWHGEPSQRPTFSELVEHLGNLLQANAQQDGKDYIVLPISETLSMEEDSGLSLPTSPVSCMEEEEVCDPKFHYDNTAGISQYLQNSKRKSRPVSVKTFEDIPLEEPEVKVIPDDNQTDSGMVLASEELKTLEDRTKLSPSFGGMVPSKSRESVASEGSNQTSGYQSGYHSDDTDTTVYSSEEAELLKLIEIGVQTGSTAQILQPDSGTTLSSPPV
c-MET kinase, sequence (P08581 25-1390): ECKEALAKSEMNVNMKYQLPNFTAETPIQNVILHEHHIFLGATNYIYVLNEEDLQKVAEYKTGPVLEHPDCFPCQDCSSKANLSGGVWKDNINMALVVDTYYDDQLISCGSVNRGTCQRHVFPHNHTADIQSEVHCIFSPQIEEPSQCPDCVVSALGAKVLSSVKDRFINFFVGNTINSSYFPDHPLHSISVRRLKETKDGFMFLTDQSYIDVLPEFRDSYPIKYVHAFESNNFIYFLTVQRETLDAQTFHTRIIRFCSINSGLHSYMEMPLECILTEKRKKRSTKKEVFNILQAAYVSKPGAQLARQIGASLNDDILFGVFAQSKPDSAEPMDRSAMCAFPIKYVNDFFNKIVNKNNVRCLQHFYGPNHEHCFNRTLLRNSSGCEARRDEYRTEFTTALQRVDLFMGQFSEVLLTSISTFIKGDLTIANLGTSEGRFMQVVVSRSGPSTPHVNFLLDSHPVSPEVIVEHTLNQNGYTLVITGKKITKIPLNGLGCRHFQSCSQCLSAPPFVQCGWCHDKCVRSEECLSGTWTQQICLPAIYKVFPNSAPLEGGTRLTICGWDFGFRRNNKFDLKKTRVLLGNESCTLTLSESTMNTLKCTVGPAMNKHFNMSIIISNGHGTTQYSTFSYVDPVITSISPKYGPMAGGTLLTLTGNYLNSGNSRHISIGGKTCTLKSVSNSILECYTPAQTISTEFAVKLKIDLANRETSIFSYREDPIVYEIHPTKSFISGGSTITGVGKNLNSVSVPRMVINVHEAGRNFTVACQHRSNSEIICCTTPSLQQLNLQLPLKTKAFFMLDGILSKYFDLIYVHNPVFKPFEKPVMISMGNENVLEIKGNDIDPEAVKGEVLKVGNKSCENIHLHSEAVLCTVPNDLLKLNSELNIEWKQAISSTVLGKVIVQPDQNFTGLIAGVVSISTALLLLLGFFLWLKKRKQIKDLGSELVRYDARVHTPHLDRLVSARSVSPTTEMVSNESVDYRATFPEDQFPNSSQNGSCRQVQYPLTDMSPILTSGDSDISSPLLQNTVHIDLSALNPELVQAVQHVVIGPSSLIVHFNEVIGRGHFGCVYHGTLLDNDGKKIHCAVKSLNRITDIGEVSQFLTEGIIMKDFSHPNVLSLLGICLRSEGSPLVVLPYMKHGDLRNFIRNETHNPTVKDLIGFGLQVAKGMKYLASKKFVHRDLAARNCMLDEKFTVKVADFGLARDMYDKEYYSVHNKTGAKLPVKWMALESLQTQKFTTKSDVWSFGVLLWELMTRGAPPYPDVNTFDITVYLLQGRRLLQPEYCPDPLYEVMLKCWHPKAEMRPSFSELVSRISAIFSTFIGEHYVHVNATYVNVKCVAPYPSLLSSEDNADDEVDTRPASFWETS

| SMILES | IC50 (VEGFR-2 kinase) [nM] | IC50 (Ba/F3-AXL cells) [nM] | IC50 (c-MET kinase) [nM] |
| --- | --- | --- | --- |
| Cn1cc(C(=O)Nc2ccc(Oc3ccnc4cc(OCCCN5CCOCC5)c5c(c34)OCCO5)c(F)c2)c(=O)n(-c2ccc(F)cc2)c1=O [Example 15, N-(3-fluoro-4-((5-(3-morpholinopropoxy)-2,3-dihydro-[1,4]dioxino[2,3-f]quinolin-10-yl)oxy)phenyl)-3-(4-fluorophenyl)-1-methyl-2,4-dioxo-1,2,3,4-tetrahydropyrimidine-5-carboxamide] | 50 to 500 | < 50 | ≤ 50 |
| CC(C)n1cc(C(=O)Nc2ccc(Oc3ccnc4cc(OCCCN5CCC(C)(O)CC5)c5c(c34)OCCO5)c(F)c2)c(=O)n(-c2ccc(F)cc2)c1=O [Example 94, N-(3-fluoro-4-((5-(3-(4-methyl-4-hydroxypiperidin-1-yl)propoxy)-2,3-dihydro-[1,4]dioxino[2,3-f]quinolin-10-yl)oxy)phenyl)-3-(4-fluorophenyl)-1-isopropyl-2,4-dioxo-1,2,3,4-tetrahydropyrimidine-5-carboxamide] | 500 to 5000 | < 50 | ≤ 50 |
| CC(C)n1cc(C(=O)Nc2ccc(Oc3ccnc4cc(OCCCN5CCCCC5)c5c(c34)OCCO5)c(F)c2)c(=O)n(-c2ccc(F)cc2)c1=O [Example 40, N-(3-fluoro-4-((5-(3-(piperidin-1-yl)propoxy)-2,3-dihydro-[1,4]dioxino[2,3-f]quinolin-10-yl)oxy)phenyl)-3-(4-fluorophenyl)-1-isopropyl-2,4-dioxo-1,2,3,4-tetrahydropyrimidine-5-carboxamide] | 50 to 500 | < 50 | ≤ 50 |
| CCOc1ccn(-c2ccc(F)cc2)c(=O)c1C(=O)Nc1ccc(Oc2ccnc3cc(OCC4(N)CC4)c4c(c23)OCCO4)c(F)c1 [Example 105, N-(4-((5-((1-aminocyclopropyl)methoxy)-2,3-dihydro-[1,4]dioxino[2,3-f]quinolin-10-yl)oxy)-3-fluorophenyl)-4-ethoxy-1-(4-fluorophenyl)-2-oxo-1,2-dihydropyridine-3-carboxamide] | 50 to 500 | < 50 | ≤ 50 |
| CCOc1ccn(-c2ccc(F)cc2)c(=O)c1C(=O)Nc1ccc(Oc2ccnc3cc(OCC(C)(C)O)c4c(c23)OCCO4)cc1Cl [Example 142, N-(2-chloro-4-((5-(2-hydroxy-2-methylpropoxy)-2,3-dihydro-[1,4]dioxino[2,3-f]quinolin-10-yl)oxy)phenyl)-1-(4-fluorophenyl)-4-ethoxy-2-oxo-1,2-dihydropyridine-3-carboxamide] | 50 to 500 | < 50 | ≤ 50 |
| CC(C)n1cc(C(=O)Nc2ccc(Oc3ccnc4cc(OCC5(N)CC5)c5c(c34)OCCO5)c(F)c2)c(=O)n(-c2ccc(F)cc2)c1=O [Example 106, N-(3-fluoro-4-((5-((1-aminocyclopropyl)methoxy)-2,3-dihydro-[1,4]dioxino[2,3-f]quinolin-1 0-yl)oxy)phenyl)-3-(4-fluorophenyl)-1-isopropyl-2,4-dioxo-1,2,3,4-tetrahydropyrimidine-5-carboxamide] | > 5000 | < 50 | 50 to 500 |
| CCOc1ccn(-c2cccc(F)c2)c(=O)c1C(=O)Nc1ccc(Oc2ccnc3cc(OC)c4c(c23)OCCO4)c(F)c1 [Example 114, N-(3-fluoro-4-((5-methoxy-2,3-dihydro-[1,4]dioxino[2,3-f]quinolin-10-yl)oxy)phenyl)-2-oxo-4-ethoxy-1-(3-fluorophenyl)-1,2-dihydropyridin-3-carboxamide] | 50 to 500 | < 50 | ≤ 50 |
| CCn1cc(C(=O)Nc2ccc(Oc3ccnc4cc(OC)c5c(c34)OCCO5)c(F)c2)c(=O)n(-c2ccc(F)cc2)c1=O [Example 37, N-(3-fluoro-4-((5-methoxy-2,3-dihydro-[1,4]dioxino[2,3-f]quinolin-10-yl)oxy)phenyl)-3-(4-fluorophenyl)-1-ethyl-2,4-dioxo-1,2,3,4-tetrahydropyrimidine-5-carboxamide] | 50 to 500 | < 50 | ≤ 50 |
| COc1cc2nccc(Oc3ccc(NC(=O)c4cn(C)c(=O)n(-c5ccc(F)cc5)c4=O)cc3F)c2c2c1OCCO2 [Example 13, N-(3-fluoro-4-((5-methoxy-2,3-dihydro-[1,4]dioxino[2,3-f]quinolin-10-yl)oxy)phenyl)-3-(4-fluorophenyl)-1-methyl-2,4-dioxo-1,2,3,4-tetrahydropyrimidine-5-carboxamide] | 500 to 5000 | < 50 | ≤ 50 |
| CCn1cc(C(=O)Nc2ccc(Oc3ccnc4cc(OCCCN5CCOCC5)c5c(c34)OCCO5)c(F)c2)c(=O)n(-c2ccc(F)cc2)c1=O [Example 38, N-(3-fluoro-4-((5-(3-morpholinopropoxy)-2,3-dihydro-[1,4]dioxino[2,3-f]quinolin-10-yl)oxy)phenyl)-3-(4-fluorophenyl)-1-ethyl-2,4-dioxo-1,2,3,4-tetrahydropyrimidine-5-carboxamide] | 50 to 500 | < 50 | ≤ 50 |
| COc1cc2nccc(Oc3ccc(NC(=O)c4cn(CCCO)c(=O)n(-c5ccc(F)cc5)c4=O)cc3F)c2c2c1OCCO2 [Example 99, N-(3-fluoro-4-((5-methoxy-2,3-dihydro-[1,4]dioxino[2,3-f]quinolin-10-yl)oxy)phenyl)-3-(4-fluorophenyl)-1-(3-hydroxypropyl)-2,4-dioxo-1,2,3,4-tetrahydropyrimidine-5-carboxamide] | 500 to 5000 | < 50 | ≤ 50 |
| COc1cc2nccc(Oc3ccc(NC(=O)c4cn(CC(=O)O)c(=O)n(-c5ccc(F)cc5)c4=O)cc3F)c2c2c1OCCO2 [Example 104, 2-(5-((3-fluoro-4-((5-methoxy-2,3-dihydro-[1,4]dioxino[2,3-f]quinolin-10-yl)oxy)phenyl)carbamoyl)-3-(4-fluorophenyl)-2,4-dioxo-3,4-dihydropyrimidin-1(2H)-yl)acetic acid] | > 5000 | > 5000 | ≤ 50 |
| CC(C)n1cc(C(=O)Nc2ccc(Oc3ccnc4cc(OCC(C)(C)O)c5c(c34)OCCO5)c(F)c2)c(=O)n(-c2ccc(F)cc2)c1=O [Example 122, N-(3-fluoro-4-((5-(2-hydroxy-2-methylpropoxy)-2,3-dihydro-[1,4]dioxino[2,3-f]quinolin-10-yl)oxy)phenyl)-3-(4-fluorophenyl)-1-isopropyl-2,4-dioxo-1,2,3,4-tetrahydropyrimidine-5-carboxamide] | 500 to 5000 | < 50 | ≤ 50 |

Other lines, results leading:

| IC50 (VEGFR-2 kinase) [nM] | IC50 (Ba/F3-AXL cells) [nM] | IC50 (c-MET kinase) [nM] | SMILES |
| --- | --- | --- | --- |
| 50 to 500 | < 50 | ≤ 50 | COCCOc1cc2nccc(Oc3ccc(NC(=O)c4cn(C)c(=O)n(-c5ccc(F)cc5)c4=O)cc3F)c2c2c1OCCO2 [Example 42, N-(3-fluoro-4-((5-(2-methoxyethoxy)-2,3-dihydro-[1,4]dioxino[2,3-f]quinolin-10-yl)oxy)phenyl)-3-(4-fluorophenyl)-1-methyl-2,4-dioxo-1,2,3,4-tetrahydropyrimidine-5-carboxamide] |
| ≤ 50 | < 50 | ≤ 50 | COCCOc1cc2nccc(Oc3ccc(NC(=O)c4cccn(-c5ccc(F)cc5)c4=O)cc3F)c2c2c1OCCO2 [Example 34, N-(3-fluoro-4-((5-(2-methoxyethoxy)-2,3-dihydro-[1,4]dioxino[2,3-f]quinolin-10-yl)oxy)phenyl)-1-(4-fluorophenyl)-2-oxo-1,2-dihydropyridine-3-carboxamide] |
| ≤ 50 | < 50 | ≤ 50 | CCOc1ccn(-c2ccc(F)cc2)c(=O)c1C(=O)Nc1ccc(Oc2ccnc3cc(OCCCN4CCCCC4)c4c(c23)OCCO4)c(F)c1 [Example 33, N-(3-fluoro-4-((5-(3-(piperidin-1-yl)propoxy)-2,3-dihydro-[1,4]dioxino[2,3-f]quinolin-10-yl)oxy)phenyl)-1-(4-fluorophenyl)-4-ethoxy-2-oxo-1,2-dihydropyridine-3-carboxamide] |
| ≤ 50 | < 50 | ≤ 50 | CCOc1ccn(-c2ccc(F)cc2)c(=O)c1C(=O)Nc1ccc(Oc2ccnc3cc(OCCOC)c4c(c23)OCCO4)c(F)c1 [Example 36, N-(3-fluoro-4-((5-(2-methoxyethoxy)-2,3-dihydro-[1,4]dioxino[2,3-f]quinolin-10-yl)oxy)phenyl)-1-(4-fluorophenyl)-4-ethoxy-2-oxo-1,2-dihydropyridine-3-carboxamide] |
| ≤ 50 | < 50 | ≤ 50 | CCOc1ccn(-c2ccc(F)cc2)c(=O)c1C(=O)Nc1ccc(Oc2ccnc3cc(OC)c4c(c23)OCCO4)c(F)c1 [Example 19, N-(3-fluoro-4-((5-methoxy-2,3-dihydro-[1,4]dioxino[2,3-f]quinolin-10-yl)oxy)phenyl)-1-(4-fluorophenyl)-4-ethoxy-2-oxo-1,2-dihydropyridine-3-carboxamide] |
| ≤ 50 | < 50 | ≤ 50 | CCOc1ccn(-c2ccc(F)cc2)c(=O)c1C(=O)Nc1ccc(Oc2ccnc3cc(OCCCN4CCOCC4)c4c(c23)OCCO4)c(F)c1 [Example 22, N-(3-fluoro-4-((5-(3-morpholinopropoxy)-2,3-dihydro-[1,4]dioxino[2,3-f]quinolin-10-yl)oxy)phenyl)-1-(4-fluorophenyl)-4-ethoxy-2-oxo-1,2-dihydropyridine-3-carboxamide] |
